Entries after “also recorded” stand apart in the source; their conditions may differ.
Columns and labels:
[1] = tested on: noninfected Sf9 insect cells; test: FACS labeling of noninfected Sf9 insect cells; format: binding; conditions: FACScan
Text: In FIG. 4B, Sf9 cells uniquely expressing IGF-IR are labeled with αIR3 (2) or anti-IR(3), the peak (1) representing the single cells. In FIG. 4C, Sf9 cells uniquely expressing IR are labeled with an anti-IR (3) or αIR3 (2), the peak (1) representing the single cells.
evaluating the supernatants of hybridomas positive in the two first screenings in terms of differential recognition of IGF-IR and of IR on insect cells infected with baculoviruses respectively expressing IGF-IR or IR,
For the immunization stage, mice were injected twice, by the subcutaneous route, with 8 μg of recombinant IGF-IR. Three days before the fusion of the cells of the […] with the cells of the murine myeloma Sp2OAg14, the mice were stimulated by an intravenous injection of 3 μg of the recombinant receptor. Fourteen days after the fusion, the supernatants of hybridomas were screened by ELISA, on plates sensitized by recombinant IGF-IR. The hybridomas whose supernatants were found positive were conserved and amplified before being tested on the FACScan so as to verify that the antibodies produced were likewise capable of recognizing native IGF-IR. In order to do this, MCF-7 cells from an estrogen-dependent tumor of the breast overexpressing IGF-IR were incubated with each of the culture supernatants produced by the hybridomas selected in ELISA. […]

[2] = tested on: MCF-7 cells; test: IGF1-induced proliferation of MCF-7 cells (3H thymidine incorporation); format: cell-based, human; conditions: antibody 10 μg/ml; IGF-I 1 to 50 ng/ml
Method: The cell proliferation is evaluated by following the incorporation of ^3H thymidine. The commercial antibody αIR3 is used as a positive control of the experiment.
The cell proliferation is estimated by following on the β counter the incorporation of tritiated thymidine by the cells. The results are expressed as a proliferative index.

[3] = tested on: MCF-7 tumor; test: MCF-7 tumor growth in nude mice (subcutaneous xenograft); format: in vivo; conditions: for inhibition of MCF-7 tumor growth in vivo, murine versus humanized antibody: 125 μg/dose twice a week i.p. (Example 36)
Method: The in vivo selection was carried out in an established tumor model. In order to do this, nude mice received a subcutaneous implant of slow-release estrogen, indispensable for the taking of the tumor in a murine model. Twenty-four hours after implantation of the estrogens, 5·10^6 MCF-7 cells are grafted onto the right flank of the mouse subcutaneously. Five days after this cell graft, the tumors are measurable and batches of 6 mice are formed at random. The treatment of the mice is carried out twice per week, during 5 to 6 weeks, at the dose of 250 μg/dose/mouse. In the control group, the mice are treated in the same fashion with a murine control isotype. […] Another non exclusive hypothesis could be the recognition by these antibodies of the atypical IGF-IR as described in the paper of Siddle et al., (Siddle et al., 1994, Horn Res. 41(suppl. 2):56-65).
The long-term use of tamoxifen is associated with a significant increase in the risk of endometrial cancer (Fisher et al., J. of National Cancer Institute, 86, 7:527-537, 1994; VIDAL 2000, 1975-1976) and of collateral recurrence of E2-independent cancer of the breast (Li C. I. et al., J. Natl. Cancer Inst., July 4, 93(13):1008-1013, 2001). […] In order to do this, 7·10^6 MCF-7 cells were implanted sc (subcutaneously) in nude mice, 24 hours after implantation in these same mice of a grain of estradiol with prolonged release (0.72 mg/tablet liberated over 60 days), indispensable for the establishment of any E2-dependent human tumor in this animal species. Five days after this implantation, the tumors are measured and groups of 6 mice are formed. […] The tamoxifen is administered daily for 4 weeks except at the weekend. […] A study was previously carried out in order to verify that the solvent alone is without influence on the tumor growth.
To do this, 5·10^6 A549 cells were implanted subcutaneously in nude mice. Five days after this implantation, the tumors were measured and groups of 6 mice were formed. […] In the MCF-7 breast tumor model, a sustained-release oestradiol granule (0.72 mg/tablet released over 60 days) is implanted subcutaneously 24 hours before implantation of the cells. This granule is essential to the establishment of any E2-dependent human tumor in this animal species.

[4] = tested on: DU145 tumor; test: DU145 androgen-independent prostate tumor xenograft; format: in vivo, nude mice; conditions: 250 μg/dose/mouse twice per week i.p.
Method: In these 4 models, the treatment was carried out twice per week i.p. at a rate of 250 μg/dose/mouse.

[5] = tested on: A549 tumor; test: A549 non-small cell lung tumor subcutaneous xenograft; format: in vivo, nude mice; conditions: s.c. xenograft; for inhibition of A549 tumor growth in vivo, murine versus humanized antibody: 125 μg/dose twice per week i.p.
Method: Navelbine is a chemotherapy compound indicated in non-small cell cancer of the lung and in metastatic cancer of the breast. […] For this study, 5·10^6 A549 cells were grafted subcutaneously on the right flank of the mouse. Five days after the cell graft, the tumors are measurable and the treatments with MAb and/or navelbine are commenced. The MAb dose is always 250 μg/dose/mouse, twice per week, intra-peritoneally. Concerning navelbine, it will be administered at the maximum dose tolerated by the mouse or 10 mg/kg, intraperitoneally. For this treatment three injections will be carried out at intervals of 7 days. During the coadministrations, the two products are mixed before injection.
For this study, nude mice are grafted s.c. with 5·10^6 A549 cells. Five days after the cell graft, the tumors are measured and a homogeneous batch of mice in terms of tumor volume is formed. Starting from this batch, groups of 6 mice are generated at random.
To do this, 5·10^6 A549 cells were implanted subcutaneously in nude mice. Five days after this implantation, the tumors were measured and groups of 6 mice were formed. […] This granule is essential to the establishment of any E2-dependent human tumor in this animal species.
These conjugates are administered according to the same modes as the groups given the chemotherapy compounds alone; • the animals of the control batch are given injections of PBS, administered according to the same frequency.
The weight of the mice and the tumor volume are evaluated twice a week. The tumor volumes are calculated according to the formula: ½ (length·width·height).

[6] = tested on: MCF-7 cells; test: Cell cycle of MCF-7 cells with IGF1; format: cell-based, human; conditions: MCF-7 cells, 24 hours
Method: The inhibition of the cell growth observed in vitro on the line MCF-7 should be manifested by an effect on the cell cycle. In order to reply to this question, 4·10^5 cells are inoculated into 6-well plates. […] After incubation for 24 hours, the cells are recovered for the study of the cell cycle.

[7] = tested on: A549 cells; test: ADCC with human NK cells on A549 cells (51Cr); format: cell-based; conditions: 4 hours, 10 μg antibody per 5·10^5 cells
Method: In order to verify this point, NK (Natural Killer) cells coming from the peripheral blood of human donors are placed in the presence of A549 or MCF-7 cells previously incubated for 4 hours with 10 μg of 7H2HM antibody per 5·10^5 cells and labeled with ^51Cr ([…]).

[8] = 250 μg/dose/mouse twice per week i.p.

Substance | MFI (Mean fluorescence intensity), Noninfected cells [1] | inhibition of IGF1-induced proliferation of MCF-7 cells [2] | inhibition of MCF-7 tumor growth in vivo, murine versus humanized antibody [3] | inhibition of MCF-7 tumor growth in vivo [3, 8] | antitumor activity in DU145 model [4] | inhibition of A549 tumor growth in vivo, murine versus humanized antibody [5] | inhibition of A549 tumor growth in vivo [5, 8] | inhibition of IGF1-induced entry into the cell cycle [6] | inhibition of MCF-7 tumor growth in vivo, murine versus humanized antibody ([3]; listed as 7H2HM) | ADCC on A549 cells [7]
7C10: murine monoclonal anti-IGF-IR IgG1 secreted by the hybridoma deposited at the CNCM under the number I-2717 | 8.6 | significantly inhibits the growth | significant inhibition of tumor growth | very significant inhibition of the tumor growth; also recorded: significantly inhibiting the growth; also recorded: significantly more efficacious than tamoxifen | significant activity | significant inhibition of the tumor growth | significant activity; also recorded: as active as the conventional treatment with navelbine; also recorded: significant decrease in the tumor growth | significant inhibition of the entry into the cycle | – | –
h7C10: humanized 7C10 anti-IGF-IR antibody, isotype IgG1 (humanized 1 written 7H2HM) | – | perfectly preserved their properties of inhibiting the IGF1-induced growth | exactly the same intensity as that observed with its murine counterpart | – | – | exactly the same intensity as that observed with its murine counterpart | – | significant inhibition of the entry into the cycle | perfectly comparable with the murine antibody 7C10 | capable of inducing an ADCC

From US8101180B2, “Anti-IGF-IR and/or anti-insulin/IGF-I hybrid receptors antibodies and uses thereof” (Pierre Fabre Medicament, priority 2002, dated 2012)
